Test results taken from patent publication US8932597B2 (priority 2008, dated 2015).

Experiments:
[1] = test system: HuM2e antibody 23K12; format: binding, human
[2] = test system: anti-M2 human monoclonal antibody Z3G1; format: binding

Substance	Signal (peptides that bind to 23K21 and 8I10) [1]	Signal (peptides that bind to Z3G1) [2]	Signal (peptides that show specific binding to Z3G1) [2]	Binding to 23K12 (in words) [1]	Binding to Z3G1 (in words) [2]
393 (SLLTEVETPIRNEWGCRCNLSSD; epitope peptide) [compound 393]	1334	2634	–	–	–
640 (SLLTEVETPIRNKWGCRCNDSSD; epitope peptide) [compound 640]	765	–	2402	–	–
677 (SLLTEVETPIQNEWGCRCNDSSD; epitope peptide) [compound 677]	731	–	2372	–	–
444 (SLLTEVETPIRNEWGCRC; epitope peptide) [compound 444]	898	2478	–	–	–
375 (SLLTEVETPIRNEWGCRVNDSSD; epitope peptide) [compound 375]	1446	–	2316	–	–
586 (SLLTEVETPIRNEWGCRCNISSD; epitope peptide) [compound 586]	851	2517	–	–	–
534 (SLLTEVEKPIRNEWGCRCNDSSD; epitope peptide) [compound 534]	963	–	2505	–	–
544 (SLLTEVETPIRNEWGCRCRDSSD; epitope peptide) [compound 544]	924	2447	–	–	–
448 (SLLTEVETPIRNEWGCRCNDSS; epitope peptide) [compound 448]	833	2325	–	–	–
703 (SLLTEVETPIRNWWGCRCNDSSD; epitope peptide) [compound 703]	713	–	2293	–	–
316 (MSLLTEVGCSLLTEV; epitope peptide) [compound 316]	1809	2650	–	–	–
700 (SLLTEVETSIRNEWGCRCNDSSD; epitope peptide) [compound 700]	715	–	2151	–	–
451 (CSLLTEVGMSLLTEC; epitope peptide) [compound 451]	1326	2613	–	–	–
445 (SLLTEVETPIRNEWGCRCN; epitope peptide) [compound 445]	977	2506	–	–	–
379 (SLCTEVGCSCLCEV; epitope peptide) [compound 379]	1421	–	1500	–	–
709 (SLLTEVLTPIRNEWGCRCNDSSD; epitope peptide) [compound 709]	707	–	1743	–	–
334 (CSLLTEVGMSLCTEV; epitope peptide) [compound 334]	1682	2857	–	–	–
467 (SLLTEVENPIRNEWGCRCNDSSD; epitope peptide) [compound 467]	1245	–	2549	–	–
702 (SLLTEVETPIRNYWGCRCNDSSD; epitope peptide) [compound 702]	714	–	2311	–	–
676 (SLLTEVETPIENEWGCRCNDSSD; epitope peptide) [compound 676]	731	–	2252	–	–
SLLTEVGSLLTEV (epitope peptide) [SEQ ID NO: 320]	–	–	–	best 23k12 binder	recognized
613 (SLLTEVETPIRNEWGCRCNHSSD; epitope peptide) [compound 613]	812	2439	–	–	–
292 (CSLLTEVGSLLTEC; epitope peptide) [compound 292]	2094	–	2213	–	–
708 (SLLTEVETPIRNEGGCRCNDSSD; epitope peptide) [compound 708]	708	–	2486	–	–
583 (SLLTEVWTPIRNEWGCRCNDSSD; epitope peptide) [compound 583]	855	–	1889	–	–

Substance	Signal (peptides that bind to 23K21 and 8I10) [1]	Signal (peptides that bind to Z3G1) [2]	Signal (peptides that show specific binding to Z3G1) [2]	Binding to 23K12 (in words) [1]	Binding to Z3G1 (in words) [2]
464 (SLLTEVGSLCTEV; epitope peptide) [compound 464]	1256	–	2219	–	–
476 (CSLLTEVGCSCLCEV; epitope peptide) [compound 476]	1206	1680	–	–	–
680 (SLLTEVETPIVNEWGCRCNDSSD; epitope peptide) [compound 680]	729	–	2366	–	–
499 (CSLLTEVGMSCLCEC; epitope peptide) [compound 499]	1066	2101	–	–	–
713 (SLLTEVETPIRNEWGQRCNDSSD; epitope peptide) [compound 713]	705	–	2369	–	–
535 (SLLTEVETPIRNEWGCRCNFSSD; epitope peptide) [compound 535]	963	2509	–	–	–
414 (SLLTEVETPIRNEWGCRCNDQSD; epitope peptide) [compound 414]	739	2349	–	–	–
264 (CSLLTEVETCVETPIRNEWGSRSNDC; epitope peptide) [compound 264]	707	–	2374	–	–
610 (SLLTEVETDIRNEWGCRCNDSSD; epitope peptide) [compound 610]	813	–	2392	–	–
618 (SLLTEVETPIRNEWGCRCLDSSD; epitope peptide) [compound 618]	807	2480	–	–	–
346 (SLLMEVETPIRNEWGCRCNDSSD; epitope peptide) [compound 346]	1616	–	2477	–	–
594 (SLLTEVQTPIRNEWGCRCNDSSD; epitope peptide) [compound 594]	838	–	2289	–	–
656 (SLLTEVETPIWNEWGCRCNDSSD; epitope peptide) [compound 656]	753	–	2250	–	–
525 (SLLTEVGCSCLCEV; epitope peptide) [compound 525]	996	–	1829	–	–
638 (SLLTEVETPIRNEWGTRCNDSSD; epitope peptide) [compound 638]	767	–	2404	–	–
403 (SLLTEVETPIRNEWGCRCNDCSD; epitope peptide) [compound 403]	772	2318	–	–	–
394 (SLLTEVETPIRNEWGCRCNMSSD; epitope peptide) [compound 394]	1133	2574	–	–	–
501 (SLLTEVETPIRNEWGCCCNDSSD; epitope peptide) [compound 501]	1065	–	2515	–	–
460 (MSLLTECGMSLLCEV; epitope peptide) [compound 460]	1268	2373	–	–	–
430 (SLLTEVETPIRNEWGCRCNDSRD; epitope peptide) [compound 430]	833	2373	–	–	–
698 (SLLTEVETPIRDEWGCRCNDSSD; epitope peptide) [compound 698]	716	–	2187	–	–
645 (SLLTEVVTPIRNEWGCRCNDSSD; epitope peptide) [compound 645]	763	–	1492	–	–
161 (CPIRNEWGSRSNDSSDCSLLTEVETC; epitope peptide) [compound 161]	1206	–	2759	–	–
565 (SLLTEVETPIRVEWGCRCNDSSD; epitope peptide) [compound 565]	884	–	2300	–	–
511 (SLLCEVGCSLLTEV; epitope peptide) [compound 511]	1044	–	2562	–	–
